From ChEMBL document CHEMBL4265904, “Hybrids of arenobufagin and benzoisoselenazol reducing the cardiotoxicity of arenobufagin” (Bioorg Med Chem Lett, 2018)
Active and inactive are the calls of the source. The calls are words filed in the database; no cut-off is given here.

Assays:
Homo sapiens = species on record: Homo sapiens; assay: Cytoprotective activity against H2O2-induced oxidative damage in human AC16 cells at 1 uM preincubated for 30 mins followed by H2O2 addition and measured after 6 hrs; format: functional, cell-based
[1] = Antiproliferative activity against human AC16 cells by MTT assay; format: cell-based
[2] = Cytotoxic activity against human AC16 cells assessed as cell swelling at 1 uM after 24 hrs by phase contrast microscopic method; format: cell-based
HepG2 [3] = assay: Inhibition of ROS generation in human HepG2 cells at 1 uM after 2 hrs by DCFH-DA staining based method; format: functional, cell-based
[4] = Selectivity index, ratio of IC50 for human AC16 cells to IC50 for human HepG2 cells; format: toxicity; settings: AC16 cells and HepG2 cells, read-out: Ratio IC50
[5] = Antiproliferative activity against human HepG2/ADM cells by MTT assay; format: functional, cell-based
[6] = Cytotoxic activity against human AC16 cells assessed as cell detachment from substratum at 1 uM after 24 hrs by phase contrast microscopic method; format: cell-based
HepG2 [7] = assay: Antiproliferative activity against human HepG2 cells by MTT assay; format: functional, cell-based
[8] = Toxicity in ip dosed Kunming mouse assessed as mortality; format: organism-based; settings: in vivo
HepG2 [9] = assay: Antiproliferative activity against human HepG2 cells after 48 hrs by MTT assay; format: functional, cell-based; settings: HepG2, 48 h

SMILES | Activity (Homo sapiens) | IC50 [1] [nM] | Activity [2] | inhibition (HepG2 [3]) | selectivity ratio [4] | IC50 [5] [nM] | Activity [6] | IC50 (HepG2 [7]) [nM] | LD50 [8] [mg/kg] | IC50 (HepG2 [9]) [nM]
O=c1c2ccccc2[se]n1-c1ccccc1 | Active |  |  |  |  |  |  |  |  | 
C[C@]12CC[C@H](OC(=O)[C@H](Cc3ccccc3)n3[se]c4cc(C(F)(F)F)ccc4c3=O)C[C@H]1CC[C@@H]1[C@@H]2[C@H](O)C(=O)[C@]2(C)[C@@H](c3ccc(=O)oc3)CC[C@]12O | Active | 4300 | Non-Toxic | Active | 16.2 | 9740 | Non-Toxic | 265 |  | 
Cc1ccc2c(=O)n([C@@H](Cc3ccccc3)C(=O)O[C@H]3CC[C@@]4(C)[C@H](CC[C@@H]5[C@@H]4[C@H](O)C(=O)[C@]4(C)[C@@H](c6ccc(=O)oc6)CC[C@]54O)C3)[se]c2c1 | Active | 3570 | Non-Toxic |  | 7.3 | 7940 | Non-Toxic | 489 |  | 
C[C@]12CC[C@H](O)C[C@H]1CC[C@@H]1[C@@H]2[C@H](O)C(=O)[C@]2(C)[C@@H](c3ccc(=O)oc3)CC[C@]12O |  | 5 | Toxic |  | 0.25 | 56 | Toxic | 20 | 20 | 0.1 to 10
Cc1ccc2c(=O)n(CC(=O)O[C@H]3CC[C@@]4(C)[C@H](CC[C@@H]5[C@@H]4[C@H](O)C(=O)[C@]4(C)[C@@H](c6ccc(=O)oc6)CC[C@]54O)C3)[se]c2c1 |  | 2130 |  |  | 3.51 | 2450 |  | 607 |  | 
COc1ccc2c(=O)n([C@@H](Cc3ccccc3)C(=O)O[C@H]3CC[C@@]4(C)[C@H](CC[C@@H]5[C@@H]4[C@H](O)C(=O)[C@]4(C)[C@@H](c6ccc(=O)oc6)CC[C@]54O)C3)[se]c2c1 | Active | 2200 | Non-Toxic | Active | 7.21 | 5860 | Non-Toxic | 305 |  | 
C[C@]12CC[C@H](OC(=O)[C@H](Cc3ccccc3)n3[se]c4ccccc4c3=O)C[C@H]1CC[C@@H]1[C@@H]2[C@H](O)C(=O)[C@]2(C)[C@@H](c3ccc(=O)oc3)CC[C@]12O | Active | 3210 | Non-Toxic | Active | 9.47 | 5590 | Non-Toxic | 339 |  | 
CC[C@H](C)[C@@H](C(=O)O[C@H]1CC[C@@]2(C)[C@H](CC[C@@H]3[C@@H]2[C@H](O)C(=O)[C@]2(C)[C@@H](c4ccc(=O)oc4)CC[C@]32O)C1)n1[se]c2cc(OC)ccc2c1=O |  | 15000 |  |  | 1.03 | 36700 |  | 14500 |  | 
